Reference: patent US6143509A, “Prostate specific antigen peptides and uses thereof” (Abbott Laboratories, priority 1996, dated 2000)

What was measured:
[1] = test system: rabbit anti-ABT4 antiserum; assay: Indirect ELISA, reactivity and specificity of anti-ABT4 antiserum; assay type: binding; settings: FIG. 6, relative affinity ABT4 >PSA >hK2a
Protocol: (§1) An indirect ELISA assay was used to determine the reactivity and specificity of anti-PSA mAbs and pAbs. For the assay, 96 well microtiter plates (Costar, Cambridge, MA) were coated with PSA (0.5 micrograms/well, Abbott Laboratories, in house product, code# 91969, purified from seminal fluid) or peptides (0.1 mg/well) in 0.1 M carbonate-bicarbonate buffer (pH 9.0) overnight at 4° C. The plates were blocked with 1% BSA in PBS buffer (0.008 M sodium phosphate, 0.002M potassium phosphate, 0.14 M sodium chloride and 0.01M potassium chloride, pH 7.4) for 1 hour, then anti-PSA mAbs or pAbs (100 microliters/well) at varying dilutions were added. […] After washing, 100 microliters/well of p-nitrophenyl phosphate substrate (Pierce, Rockford, Ill.) was added and the absorbance was measured at 405 nm using an automated microtiter plate reader (Molecular Devices Corp. Menlo Oaks, Calif.). […]
The reactivity and specificity of Anti-ABT4 antiserum were evaluated by estimating the relative binding affinities (Wang et al., […] 39:1-5 (1982)) for PSA, PSA peptide ABT4 and hK2 peptide (hK2a) as described in Example I. The indirect ELISA assay format described in Section C-I of Example I was used for these studies and the data are shown in FIG. 6. […]

mAb 2C1 = assay: Competitive immunoassay: inhibition of total PSA specific mAb binding to PSA; settings: FIG. 3A
Protocol: (§2) (A). Two-site combinations of capture antibody and Europium chelate (Eu)-labeled antibody was used to determine the inhibition of mAbs binding to PSA by the synthetic peptides derived from PSA. Briefly, free PSA (0.05 pmol/well, Wallac, O Y, Turku, Finland) in 0.100 mL of Delfia® buffer (Wallac, O Y) (i.e., a blocking buffer containing 50 mM Tris-HCl (pH 7.75), 0.9% NaCl, 0.05% Na-azide, 0.01% Tween 40, 0.05% bovine-gammaglobulin, 20 μM DTPA, 0.5% BSA, 10 μg/mL native mouse IgG, 5 μg/mL denatured mouse IgG and 20 μg/mL cherry red) was added to microtiter wells coated with the various anti-PSA antibodies being used for capture (1-2 μg/well of antibody) and incubated for 1 hour at 25° C. […] After another four washings, the amount of bound Eu-labeled antibody was determined with time-resolved fluorometry previously described (Pettersson et al., Clin. Chem. 41:1480-88 (1995) & Hemmilia et al., Anal. Biochem. 137:335-43 (1984)).
(§3) (B). […] After another four washings, 100 μl/well of p-nitrophenyl phosphate substrate (Pierce Chemical Co., Rockford, Ill.) was added and the absorbance was measured at 405 nm using an automated microtiter plate reader.

mAb H164 [2] = assay: as above; settings: FIG. 3A
Protocol: as §2, §3

[3] = Immunization of rabbits with peptide coupled to KLH; assay type: in vivo; settings: FIG. 5 / FIG. 6
From the text: Antiserum was elicited by immunizing rabbits with PSA peptide ABT6 coupled to the carrier protein KLH (keyhole limpet hemocyanin) at Bio-Synthesis, Inc. (Lewisville, Tex.) using standard commercially available techniques.
Anti-ABT4 antiserum was elicited by immunizing two rabbits with PSA peptide ABT4 coupled to the carrier protein KLH at Bio-Synthesis, Inc.(Lewisville,Tex.).

mAb H164 [4] = assay: Indirect ELISA, binding specificity of mAb H164; settings: FIG. 3C
Protocol: (§4) An indirect ELISA assay was used to determine the reactivity and specificity of anti-PSA mAbs and pAbs. For the assay, 96 well microtiter plates (Costar, Cambridge, MA) were coated with PSA (0.5 micrograms/well, Abbott Laboratories, in house product, code# 91969, purified from seminal fluid) or peptides (0.1 mg/well) in 0.1 M carbonate-bicarbonate buffer (pH 9.0) overnight at 4° C. The plates were blocked with 1% BSA in PBS buffer (0.008 M sodium phosphate, 0.002M potassium phosphate, 0.14 M sodium chloride and 0.01M potassium chloride, pH 7.4) for 1 hour, then anti-PSA mAbs or pAbs (100 microliters/well) at varying dilutions were added. After incubation for 1 hour at 25° C., the wells were washed with PBS buffer containing 0.5% Tween 20, then 100 microliters/well of alkaline phosphatase-conjugated antibody (goat anti-mouse IgG or goat anti-rabbit IgG--from Pierce, Rockford, IL) at 5000 fold dilution was added and incubation continued for 1-2 hr at 25° C. After washing, 100 microliters/well of p-nitrophenyl phosphate substrate (Pierce, Rockford, Ill.) was added and the absorbance was measured at 405 nm using an automated microtiter plate reader (Molecular Devices Corp. Menlo Oaks, Calif.).

[5] = test system: known anti-PSA monoclonal antibodies; assay: Binding to known anti-PSA monoclonal antibodies (summary); settings: summary statement
Protocol: as §4
(§5) (A). Two-site combinations of capture antibody and Europium chelate (Eu)-labeled antibody was used to determine the inhibition of mAbs binding to PSA by the synthetic peptides derived from PSA. Briefly, free PSA (0.05 pmol/well, Wallac, O Y, Turku, Finland) in 0.100 mL of Delfia® buffer (Wallac, O Y) (i.e., a blocking buffer containing 50 mM Tris-HCl (pH 7.75), 0.9% NaCl, 0.05% Na-azide, 0.01% Tween 40, 0.05% bovine-gammaglobulin, 20 μM DTPA, 0.5% BSA, 10 μg/mL native mouse IgG, 5 μg/mL denatured mouse IgG and 20 μg/mL cherry red) was added to microtiter wells coated with the various anti-PSA antibodies being used for capture (1-2 μg/well of antibody) and incubated for 1 hour at 25° C. (Free or total antibodies may be used.) After washing with Delfia® wash solution, peptides (62,500-1,000,000 molar excess to PSA) in […] Delfia® buffer were added together with the Europium chelate-labeled anti-PSA antibody (0.05 pmol), and incubation was continued for 1 hour at 25°0 C. After another four washings, the amount of bound Eu-labeled antibody was determined with time-resolved fluorometry previously described (Pettersson et al., Clin. Chem. 41:1480-88 (1995) & Hemmilia et al., Anal. Biochem. 137:335-43 (1984)).
as §3

mAb 2E9 [6] = assay: Indirect ELISA, binding specificity of mAb 2E9; settings: FIG. 2B
Protocol: as §4

[7] = test system: rabbit anti-ABT6 antiserum; assay: Indirect ELISA, reactivity and specificity of anti-ABT6 antiserum; assay type: binding; settings: FIG. 5
Protocol: as §1
The reactivity and specificity of antiserum anti-ABT6 was evaluated by estimating the relative binding affinities (Wang et al., Urology 39:1-5 (1982)) for PSA, PSA peptide ABT6 and hK2 peptide hK2b as described in Example I. The indirect ELISA format described in Section C-I of Example 1 was used for these studies and the data are shown in FIG. 5.

mAb 2E9 [8] = assay: Competitive immunoassay: inhibition of mAb binding to PSA by synthetic peptides; settings: competitive immunoassay section C-II-A; FIG. 2A
Protocol: as §5

[9] = test system: mAb 9B10 (specific for free PSA); assay: as above
Protocol: as §5

mAb H68 = assay: as above; settings: competitive immunoassay section C-II-A; FIG. 2A
Protocol: as §5

[10] = test system: mAb 5A10 (specific for free PSA); assay: as above; settings: competitive immunoassay section C-II-A; FIG. 2A
Protocol: as §5

mAb 6:3 = assay: as above; settings: inhibition studies
Protocol: as §5

mAb 30:5 = assay: as above; settings: inhibition studies
Protocol: as §5

goat anti-PSA antiserum = assay: Direct ELISA with alkaline phosphatase-labeled goat anti-PSA antiserum; assay type: binding; settings: peptides coated on microtiter plates; FIG. 4
From the text: Synthetic peptides were also screened by a direct ELISA assay format which utilized a goat anti-PSA antiserum conjugated to alkaline phosphatase. In particular, peptides were coated on microtiter plates and detected by enzyme-labelled anti-PSA polyclonal antibodies. The goat anti-PSA antiserum was produced by immunization with free PSA. […] In addition to those epitopes identified by mAbs as described above, two new epitopes, ABT2 and ABT7, were identified by the anti-PSA antiserum.

binding of anti-ABT4 antiserum (relative binding affinity) [1] | binding of mAb H164 to coated peptide or PSA (mAb H164 [4]) | binding to several known anti-PSA monoclonal antibodies [5] | binding of mAb 2E9 to coated peptide or PSA (mAb 2E9 [6]) | binding of anti-ABT6 antiserum (relative binding affinity) [7] | Substance | immunogenicity (ability to elicit antibodies) [3] | other results
binds | bound specifically | specific binding | – | – | CLLGRHSLFHPEDTGQC [ABT4] | immunogenic | inhibition of PSA binding to mAb 2C1 (mAb 2C1): 80%; inhibition of PSA binding to mAb H164 (mAb H164 [2]): 90%
– | – | specific binding | specific binding | high affinity | CMSLLKNRFLRPGDDSC [ABT6] | immunogenic | binding to mAb 2E9 (mAb 2E9 [8]): selectively bound; binding to mAb 9B10 ([9]; competitive immunoassay section C-II-A, FIG. 2A): specific binding; binding to mAb H68 (mAb H68): selectively bound; binding to mAb 5A10 [10]: specific binding
– | – | specific binding | – | – | CNRFLRPGDDSSC [ABT1, synthetic PSA peptide; short version of ABT6] | – | inhibition of mAb 6:3 (mAb 6:3): 23%; inhibition of mAb 9B10 ([9]; inhibition studies): 40%; inhibition of mAb 30:5 (mAb 30:5): 50%
– | – | specific binding | – | – | CWGSIEPEEFLTPKKLC [ABT2, synthetic PSA peptide] | – | epitope identified by goat anti-PSA antiserum (goat anti-PSA antiserum): identified
binds | bound specifically | – | specific binding | high affinity | PSA: Prostate specific antigen, Abbott Laboratories in house product, purified from seminal fluid | – | –
